We go through 1 compound from US11572590B2, “Methods for evaluating tumor cell spheroids using 3D microfluidic cell culture device” (Dana-Farber Cancer Institute, Inc., priority 2017, dated 2023).

The inhibition is the relative decrease from the control value, in per cent.

Structures are written as SMILES. Read-outs that look alike come from different tables or passages of the source.

Assay in all cases: SelectScreen Kinase Profiling, single point inhibition and IC50 for off-target kinases
What all share (format): biochemical

Assay [1] concerns the target T1, off-target kinases (Homo sapiens, UniProt Q9Y2U5).
T1 sequence (Q9Y2U5 1-619): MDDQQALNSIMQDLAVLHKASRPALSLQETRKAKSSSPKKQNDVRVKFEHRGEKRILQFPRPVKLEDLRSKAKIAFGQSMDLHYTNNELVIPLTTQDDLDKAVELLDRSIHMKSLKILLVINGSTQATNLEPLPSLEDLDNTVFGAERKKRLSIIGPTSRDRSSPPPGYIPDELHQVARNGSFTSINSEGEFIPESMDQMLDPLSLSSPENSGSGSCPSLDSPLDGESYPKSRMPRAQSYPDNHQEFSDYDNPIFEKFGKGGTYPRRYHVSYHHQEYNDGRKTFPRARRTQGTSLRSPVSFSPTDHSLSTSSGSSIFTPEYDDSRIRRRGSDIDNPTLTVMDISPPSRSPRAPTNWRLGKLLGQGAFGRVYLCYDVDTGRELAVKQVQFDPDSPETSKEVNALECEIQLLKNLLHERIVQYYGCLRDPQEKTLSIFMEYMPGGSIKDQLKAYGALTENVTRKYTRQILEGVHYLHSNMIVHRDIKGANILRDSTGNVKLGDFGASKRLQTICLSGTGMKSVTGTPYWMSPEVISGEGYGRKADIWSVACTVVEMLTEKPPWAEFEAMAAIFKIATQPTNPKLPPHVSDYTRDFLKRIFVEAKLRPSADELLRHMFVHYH
The conditions noted are these: MAP3K2 (MEKK2), LanthaScreen Binding.

Assay [2] addresses off-target kinases (Homo sapiens, UniProt P53779). The conditions noted are these: MAPK10 (JNK3).
The target of assay [3] is off-target kinases (Homo sapiens, UniProt P07949, V804L). Particulars: RET V804L, ATP Km app, ZLYTE.
The target of assay [4] is off-target kinases (Homo sapiens, UniProt P32298). The conditions noted are these: GRK4; Cmpd1 1000 μM; ATP Km app; ZLYTE.
Sequence of off-target kinases (Homo sapiens, UniProt P32298) (P32298 whole entry): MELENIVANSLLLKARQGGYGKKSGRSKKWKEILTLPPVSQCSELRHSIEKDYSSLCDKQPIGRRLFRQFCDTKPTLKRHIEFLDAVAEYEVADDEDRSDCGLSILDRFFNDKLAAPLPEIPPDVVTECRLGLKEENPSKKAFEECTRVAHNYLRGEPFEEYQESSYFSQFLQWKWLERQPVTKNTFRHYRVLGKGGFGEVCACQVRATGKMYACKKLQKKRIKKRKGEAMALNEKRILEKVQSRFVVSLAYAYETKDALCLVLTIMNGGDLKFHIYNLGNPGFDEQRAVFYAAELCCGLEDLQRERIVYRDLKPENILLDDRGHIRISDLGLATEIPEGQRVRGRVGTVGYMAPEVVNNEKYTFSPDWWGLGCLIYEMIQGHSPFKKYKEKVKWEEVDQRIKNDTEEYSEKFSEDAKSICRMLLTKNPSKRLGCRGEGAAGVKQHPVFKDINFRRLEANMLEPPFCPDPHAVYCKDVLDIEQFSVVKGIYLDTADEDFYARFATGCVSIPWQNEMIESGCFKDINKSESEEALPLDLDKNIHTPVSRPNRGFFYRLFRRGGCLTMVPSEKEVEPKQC

Sequence of off-target kinases (Homo sapiens, UniProt P07949, V804L) (P07949 29-1114 V804L): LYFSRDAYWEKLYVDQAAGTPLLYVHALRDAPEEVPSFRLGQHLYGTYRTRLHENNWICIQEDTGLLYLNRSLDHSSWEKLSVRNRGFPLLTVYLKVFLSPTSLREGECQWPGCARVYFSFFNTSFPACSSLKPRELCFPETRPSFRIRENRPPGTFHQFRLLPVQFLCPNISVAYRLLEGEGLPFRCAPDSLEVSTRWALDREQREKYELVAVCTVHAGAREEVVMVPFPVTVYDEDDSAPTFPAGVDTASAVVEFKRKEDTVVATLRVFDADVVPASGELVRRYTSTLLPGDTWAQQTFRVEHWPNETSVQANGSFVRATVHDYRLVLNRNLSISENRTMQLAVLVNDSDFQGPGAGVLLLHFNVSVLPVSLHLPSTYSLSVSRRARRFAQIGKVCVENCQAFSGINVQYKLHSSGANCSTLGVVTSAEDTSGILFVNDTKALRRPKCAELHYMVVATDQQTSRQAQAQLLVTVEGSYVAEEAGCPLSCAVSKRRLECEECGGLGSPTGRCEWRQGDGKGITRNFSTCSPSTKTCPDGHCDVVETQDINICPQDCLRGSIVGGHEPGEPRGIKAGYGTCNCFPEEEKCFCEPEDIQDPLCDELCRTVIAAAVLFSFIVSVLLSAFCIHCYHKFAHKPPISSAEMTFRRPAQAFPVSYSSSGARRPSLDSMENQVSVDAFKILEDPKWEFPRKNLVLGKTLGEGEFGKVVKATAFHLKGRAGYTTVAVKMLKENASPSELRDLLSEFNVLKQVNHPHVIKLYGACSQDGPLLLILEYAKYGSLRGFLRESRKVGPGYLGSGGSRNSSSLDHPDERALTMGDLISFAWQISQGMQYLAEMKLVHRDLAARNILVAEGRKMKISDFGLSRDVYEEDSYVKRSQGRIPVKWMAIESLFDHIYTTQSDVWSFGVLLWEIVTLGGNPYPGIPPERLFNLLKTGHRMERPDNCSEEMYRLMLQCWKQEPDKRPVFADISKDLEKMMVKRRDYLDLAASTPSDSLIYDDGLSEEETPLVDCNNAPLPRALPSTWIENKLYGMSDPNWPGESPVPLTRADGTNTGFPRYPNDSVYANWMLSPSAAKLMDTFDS
Sequence of off-target kinases (Homo sapiens, UniProt P53779) (P53779 whole entry): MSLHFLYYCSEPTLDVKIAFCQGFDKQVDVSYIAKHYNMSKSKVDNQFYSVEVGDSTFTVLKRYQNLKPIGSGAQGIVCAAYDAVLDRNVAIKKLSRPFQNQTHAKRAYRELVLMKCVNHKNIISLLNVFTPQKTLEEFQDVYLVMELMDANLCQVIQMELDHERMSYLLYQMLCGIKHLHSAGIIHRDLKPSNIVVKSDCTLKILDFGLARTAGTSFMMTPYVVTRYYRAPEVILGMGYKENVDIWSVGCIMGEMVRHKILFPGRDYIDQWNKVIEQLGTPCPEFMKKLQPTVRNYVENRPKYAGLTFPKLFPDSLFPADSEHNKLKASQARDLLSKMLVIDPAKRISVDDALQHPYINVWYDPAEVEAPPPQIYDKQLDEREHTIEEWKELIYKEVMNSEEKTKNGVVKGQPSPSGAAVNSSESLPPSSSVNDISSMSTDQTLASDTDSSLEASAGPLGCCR

Regarding `N#Cc1cc(-c2ncnc(Nc3ccc(N4CCN(C5COC5)CC4)cc3)n2)ccc1OC1CCOCC1` [Compound 1, 5-(4-((4-(4-(oxetan-3-yl)piperazin-1-yl)phenyl)amino)-1,3,5-triazin-2-yl)-2-((tetrahydro-2H-pyran-4-yl)oxy)benzonitrile], the inhibition on off-target kinases [1] (read-out: % Inhibition 1) came out at 11%; at off-target kinases [1] (read-out: % Inhibition 2), 9%; on off-target kinases [1] (read-out: % Inhibition Avg), 10%; on off-target kinases [2] (LanthaScreen Binding, read-out: % Inhibition 1), 48%; at off-target kinases [2] (LanthaScreen Binding, read-out: % Inhibition 2), 49%; at off-target kinases [2] (LanthaScreen Binding, read-out: % Inhibition Avg) it was 49%. Besides, the inhibition came to 20% at off-target kinases [2] (ZLYTE, ATP 100, read-out: % Inhibition 1); 21% on off-target kinases [2] (ZLYTE, ATP 100, read-out: % Inhibition 2); 20% at off-target kinases [2] (ZLYTE, ATP 100, read-out: % Inhibition Avg); 71% on off-target kinases [3] (read-out: % Inhibition 1); 66% at off-target kinases [3] (read-out: % Inhibition 2); 69% on off-target kinases [3] (read-out: % Inhibition Avg). In addition, at off-target kinases [4], the “% Inhibition 1” value is −4%. Besides, the “% Inhibition 2” value at off-target kinases [4] is −5%. For the same compound, on off-target kinases [4], the “% Inhibition Avg” value is −5%.
